Test: In vitro skin permeation with human skin, Franz-type diffusion cells
Type: in vitro ADME
Conditions: solvent/skin penetration enhancer DEET and/or Crotamiton, concentration below saturation, receptor at 32° C.
Method: Dermatomed human skin sections were mounted onto the Franz cells and transdermal drug delivery systems mounted on tape backings (1.5 cm^2) were placed on the stratum corneal surface of the skin. Each Franz cell contained 7 ml of ethanol phosphate buffered saline as the receptor medium, maintained at 32° C. At predetermined time intervals 0.7 ml of the receptor solution was sampled and an equal amount replaced. The samples were analysed by High Pressure Liquid Chromatography.

| SMILES | skin mass transport |
| --- | --- |
| C#C[C@]1(OC(C)=O)CC[C@H]2[C@@H]3CCC4=CC(=O)CC[C@@H]4[C@H]3CC[C@@]21C [Norethisterone Acetate] | enhanced |
| C[C@]12CC[C@@H]3c4ccc(O)cc4CC[C@H]3[C@@H]1CC[C@@H]2O [Estradiol] | enhanced |

— patent US20050287195A1, “Transdermal drug delivery systems” (priority 1998, published 2005)
